In paper PMC10746543, “Design principles for cyclin K molecular glue degraders” (Nature Chemical Biology, 2023):
“And” between values parts separate entries of the source, which are not always exact repeats. Equal entries are not always repeated. Where two headings read alike, the source gives them in different places. One block for each compound: values may come before it.

Experiments:
CDK12–cyclin K and DDB1 = target: T1, CDK12–cyclin K and DDB1 (Homo sapiens, UniProt Q16531+Q9NYV4, K965R); test: TR-FRET ternary complex formation assay (compound titration); assay type: binding; details: for TR-FRET signal at compound concentration: replicate titrations
T1 construct: His6–CDK12 (a.a. 713–1,052); full-length or beta-propeller B domain deletion (ΔBPB: a.a. 396–705 deleted) constructs of His6–DDB1ΔBPB, StrepII–Avi–DDB1, or His6–Spy–DDB1; made in house; host or cells: Trichoplusia ni High Five insect cells (baculovirus)
T1 sequence (Q9NYV4 713-1052 K965R): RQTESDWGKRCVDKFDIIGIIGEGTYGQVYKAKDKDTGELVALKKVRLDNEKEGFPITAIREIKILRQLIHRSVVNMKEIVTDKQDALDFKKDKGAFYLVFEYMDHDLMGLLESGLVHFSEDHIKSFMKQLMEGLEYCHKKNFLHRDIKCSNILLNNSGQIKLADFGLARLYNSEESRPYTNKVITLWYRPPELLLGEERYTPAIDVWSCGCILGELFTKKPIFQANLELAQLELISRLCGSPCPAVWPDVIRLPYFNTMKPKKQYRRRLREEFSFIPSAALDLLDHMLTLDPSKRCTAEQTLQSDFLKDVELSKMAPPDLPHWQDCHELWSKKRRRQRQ
T1 sequence (O75909 1-267 partner): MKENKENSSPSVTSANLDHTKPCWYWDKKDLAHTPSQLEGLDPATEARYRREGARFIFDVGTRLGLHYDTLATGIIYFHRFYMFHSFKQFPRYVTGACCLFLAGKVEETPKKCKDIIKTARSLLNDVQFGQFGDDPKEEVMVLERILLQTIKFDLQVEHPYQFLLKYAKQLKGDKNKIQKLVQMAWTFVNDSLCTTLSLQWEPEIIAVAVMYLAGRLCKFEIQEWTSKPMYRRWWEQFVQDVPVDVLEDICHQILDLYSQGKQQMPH
T1 sequence (Q16531 whole entry): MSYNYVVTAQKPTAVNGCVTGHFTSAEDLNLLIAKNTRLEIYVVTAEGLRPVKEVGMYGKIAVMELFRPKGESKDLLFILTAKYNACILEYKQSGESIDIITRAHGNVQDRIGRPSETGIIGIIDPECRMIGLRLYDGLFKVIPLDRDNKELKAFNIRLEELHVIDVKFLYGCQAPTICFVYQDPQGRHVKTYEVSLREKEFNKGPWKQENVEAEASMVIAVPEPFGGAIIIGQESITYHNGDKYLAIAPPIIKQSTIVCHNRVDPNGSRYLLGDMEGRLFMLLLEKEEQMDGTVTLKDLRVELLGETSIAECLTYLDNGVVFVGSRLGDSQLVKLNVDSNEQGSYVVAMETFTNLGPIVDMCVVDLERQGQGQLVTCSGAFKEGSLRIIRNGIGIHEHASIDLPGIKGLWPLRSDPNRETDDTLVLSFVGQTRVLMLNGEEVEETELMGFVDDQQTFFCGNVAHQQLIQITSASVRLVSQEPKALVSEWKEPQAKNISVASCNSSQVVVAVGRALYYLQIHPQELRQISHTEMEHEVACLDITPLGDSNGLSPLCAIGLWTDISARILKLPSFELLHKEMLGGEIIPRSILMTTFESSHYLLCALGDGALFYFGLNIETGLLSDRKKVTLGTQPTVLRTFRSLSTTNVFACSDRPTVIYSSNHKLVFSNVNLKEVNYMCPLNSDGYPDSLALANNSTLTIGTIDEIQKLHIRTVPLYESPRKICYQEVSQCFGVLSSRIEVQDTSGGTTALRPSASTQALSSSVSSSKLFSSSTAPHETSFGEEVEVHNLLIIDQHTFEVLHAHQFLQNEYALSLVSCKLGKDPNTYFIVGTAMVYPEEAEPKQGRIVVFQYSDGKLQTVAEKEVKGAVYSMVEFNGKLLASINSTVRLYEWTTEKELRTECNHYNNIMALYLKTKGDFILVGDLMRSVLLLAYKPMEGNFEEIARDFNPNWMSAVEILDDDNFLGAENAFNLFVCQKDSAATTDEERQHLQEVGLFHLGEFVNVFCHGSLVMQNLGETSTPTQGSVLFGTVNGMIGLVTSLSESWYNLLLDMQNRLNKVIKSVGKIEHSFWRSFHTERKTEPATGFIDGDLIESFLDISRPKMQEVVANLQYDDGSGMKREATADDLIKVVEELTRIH
Source text: A 70 μs delay was employed to reduce background fluorescence. The TR-FRET signal was obtained through calculating the ratio of 520 nm to 490 nm fluorescence, and Prism 9 (GraphPad) was used for further data analysis.

HEK293T cells = test: Drug sensitivity assay (CellTiter-Glo viability) with or without MLN4924 pretreatment; assay type: cell-based, human; details: Supplementary Table 2; for EC50: Homo sapiens, HEK-293T, HEK293T viability, 72 h, compound alone, read-out: Cellular assays EC50; for Toxicity rescue: MLN4924-mediated cytotoxicity rescue, 10 µM used where n.d.
Method: HEK293T–Cas9 cells were resuspended at 0.15 × 10^6 ml^−1 treated with DMSO or 100 nM MLN4924 and plated on 384-well plates. After 2 h, the indicated drugs were dispensed with a D300 digital dispenser (Tecan). After 3 days of drug exposure, cell viability was assessed using the CellTiter-Glo luminescent assay (Promega, G7572) on an CLARIOstar Plus, MARS 3.4 (BMG LabTech). Cell viabilities were calculated relative to DMSO controls.

[1] = Supplementary Table 2, read-out: TR-FRET EC50 TR-FRET
[2] = compound concentration 79.2001 nM
[3] = compound concentration 158.4 nM
[4] = compound concentration 309.6 nM
[5] = compound concentration 626.401 nM
[6] = compound concentration 1252.8 nM
[7] = compound concentration 9936.01 nM
[8] = compound concentration 20016 nM
[9] = in vitro complex formation, 50 nM CDK12–cyclin K, 100 nM DDB1, text and figures, read-out: TR-FRET EC50

Structure (SMILES): CC[C@H](CO)Nc1nc(NCCCCn2c(=O)oc3ccccc32)c2ncn(C(C)C)c2n1 [DS46]
EC50 (CDK12–cyclin K and DDB1; [1]): 627 nM | TR-FRET signal at compound concentration (CDK12–cyclin K and DDB1; compound concentration 4.68 nM): 0.1284 and 0.1304 | TR-FRET signal at compound concentration (CDK12–cyclin K and DDB1; compound concentration 21.6 nM): 0.1505 and 0.151 | TR-FRET signal at compound concentration (CDK12–cyclin K and DDB1; compound concentration 36 nM): 0.1775 and 0.1803 | TR-FRET signal at compound concentration (CDK12–cyclin K and DDB1; [2]): 0.2245 and 0.2264 | TR-FRET signal at compound concentration (CDK12–cyclin K and DDB1; [3]): 0.2818 and 0.3032 | TR-FRET signal at compound concentration (CDK12–cyclin K and DDB1; [4]): 0.3899 and 0.4001 | TR-FRET signal at compound concentration (CDK12–cyclin K and DDB1; [5]): 0.5107 and 0.5141 | TR-FRET signal at compound concentration (CDK12–cyclin K and DDB1; [6]): 0.639 and 0.6296 | TR-FRET signal at compound concentration (CDK12–cyclin K and DDB1; compound concentration 2448 nM): 0.7343 and 0.7319 | TR-FRET signal at compound concentration (CDK12–cyclin K and DDB1; [7]): 0.8755 and 0.8533 | TR-FRET signal at compound concentration (CDK12–cyclin K and DDB1; [8]): 0.861 and 0.8686 | EC50 (HEK293T cells): > 10000 nM | Toxicity rescue (HEK293T cells): 0%

Structure (SMILES): Cn1cc(-n2cnc3c(NCc4nc5ccccc5[nH]4)nc(N4CCOCC4)nc32)cn1 [DS55]
EC50 (CDK12–cyclin K and DDB1; [1]): 35.6 nM | TR-FRET signal (CDK12–cyclin K and DDB1; compound concentration 0.468 nM): 0.2624 and 0.2805 | TR-FRET signal at compound concentration 0.468 nM (CDK12–cyclin K and DDB1; compound concentration 0.468 nM, raw replicate titration data): 0.2624 and 0.2805 | TR-FRET signal (CDK12–cyclin K and DDB1; compound concentration 2.16 nM): 0.2884 and 0.3105 | TR-FRET signal at compound concentration 2.16 nM (CDK12–cyclin K and DDB1; compound concentration 2.16 nM, raw replicate titration data): 0.2884 and 0.3105 | TR-FRET signal (CDK12–cyclin K and DDB1; compound concentration 3.6 nM): 0.3317 and 0.3563 | TR-FRET signal at compound concentration 3.6 nM (CDK12–cyclin K and DDB1; compound concentration 3.6 nM, raw replicate titration data): 0.3317 and 0.3563 | TR-FRET signal (CDK12–cyclin K and DDB1; compound concentration 7.92001 nM): 0.4199 and 0.4425 | TR-FRET signal at compound concentration 7.92001 nM (CDK12–cyclin K and DDB1; compound concentration 7.92001 nM, raw replicate titration data): 0.4199 and 0.4425 | TR-FRET signal (CDK12–cyclin K and DDB1; compound concentration 15.84 nM): 0.5444 and 0.5762 | TR-FRET signal at compound concentration 15.84 nM (CDK12–cyclin K and DDB1; compound concentration 15.84 nM, raw replicate titration data): 0.5444 and 0.5762 | TR-FRET signal (CDK12–cyclin K and DDB1; compound concentration 30.96 nM): 0.7696 and 0.7908 | TR-FRET signal at compound concentration 30.96 nM (CDK12–cyclin K and DDB1; compound concentration 30.96 nM, raw replicate titration data): 0.7696 and 0.7908 | TR-FRET signal (CDK12–cyclin K and DDB1; compound concentration 62.6401 nM): 1.019 and 1.061 | TR-FRET signal at compound concentration 62.6401 nM (CDK12–cyclin K and DDB1; compound concentration 62.6401 nM, raw replicate titration data): 1.019 and 1.061 | TR-FRET signal (CDK12–cyclin K and DDB1; compound concentration 125.28 nM): 1.199 and 1.278 | TR-FRET signal at compound concentration 125.28 nM (CDK12–cyclin K and DDB1; compound concentration 125.28 nM, raw replicate titration data): 1.199 and 1.278 | TR-FRET signal (CDK12–cyclin K and DDB1; compound concentration 244.8 nM): 1.2725 and 1.386 | TR-FRET signal at compound concentration 244.8 nM (CDK12–cyclin K and DDB1; compound concentration 244.8 nM, raw replicate titration data): 1.2725 and 1.386 | TR-FRET signal (CDK12–cyclin K and DDB1; compound concentration 993.601 nM): 1.352 and 1.424 | TR-FRET signal at compound concentration 993.601 nM (CDK12–cyclin K and DDB1; compound concentration 993.601 nM, raw replicate titration data): 1.352 and 1.424 | TR-FRET signal (CDK12–cyclin K and DDB1; compound concentration 2001.6 nM): 1.301 and 1.386 | TR-FRET signal at compound concentration 2001.6 nM (CDK12–cyclin K and DDB1; compound concentration 2001.6 nM, raw replicate titration data): 1.301 and 1.386 | EC50 (CDK12–cyclin K and DDB1; [9]): 36 ± 2 nM | EC50 (HEK293T cells): 1030 nM | Toxicity rescue (HEK293T cells): 336%

Structure (SMILES): CC[C@H](CO)Nc1nc(NCc2ccccc2)c2ncn(C(C)C)c2n1 [Roscovitine]
Toxicity rescue (HEK293T cells): 0%

More lines, main results first:

TR-FRET signal at compound concentration 4.68 nM (CDK12–cyclin K and DDB1; compound concentration 4.68 nM, raw replicate titration data): 0.1981 and 0.2221 | TR-FRET signal at compound concentration 21.6 nM (CDK12–cyclin K and DDB1; compound concentration 21.6 nM, raw replicate titration data): 0.2108 and 0.2312 | TR-FRET signal at compound concentration 36 nM (CDK12–cyclin K and DDB1; compound concentration 36 nM, raw replicate titration data): 0.221 and 0.2484 | TR-FRET signal at compound concentration 79.2001 nM (CDK12–cyclin K and DDB1; compound concentration 79.2001 nM, raw replicate titration data): 0.2309 and 0.2483 | TR-FRET signal at compound concentration 158.4 nM (CDK12–cyclin K and DDB1; compound concentration 158.4 nM, raw replicate titration data): 0.2488 and 0.2752 | TR-FRET signal at compound concentration 309.6 nM (CDK12–cyclin K and DDB1; compound concentration 309.6 nM, raw replicate titration data): 0.2871 and 0.3205 | TR-FRET signal at compound concentration 626.401 nM (CDK12–cyclin K and DDB1; compound concentration 626.401 nM, raw replicate titration data): 0.3642 and 0.3972 | TR-FRET signal at compound concentration 1252.8 nM (CDK12–cyclin K and DDB1; compound concentration 1252.8 nM, raw replicate titration data): 0.4852 and 0.5291 | TR-FRET signal at compound concentration 2448 nM (CDK12–cyclin K and DDB1; compound concentration 2448 nM, raw replicate titration data): 0.6251 and 0.6926 | TR-FRET signal at compound concentration 9936.01 nM (CDK12–cyclin K and DDB1; compound concentration 9936.01 nM, raw replicate titration data): 0.9055 and 1.021 | TR-FRET signal at compound concentration 20016 nM (CDK12–cyclin K and DDB1; compound concentration 20016 nM, raw replicate titration data): 0.9207 and 1.03 | EC50 (CDK12–cyclin K and DDB1; [9]): 2110 ± 252 nM
Structure (SMILES): Cn1cc(-n2cnc3c(NCc4cc5ccccc5[nH]4)nc(N4CCOCC4)nc32)cn1 [DS56]

EC50 (CDK12–cyclin K and DDB1; [1]): ~2200 nM | TR-FRET signal (CDK12–cyclin K and DDB1; compound concentration 4.68 nM): 0.2045 and 0.2293 | TR-FRET signal (CDK12–cyclin K and DDB1; compound concentration 21.6 nM): 0.2001 and 0.225 | TR-FRET signal (CDK12–cyclin K and DDB1; compound concentration 36 nM): 0.2055 and 0.2312 | TR-FRET signal (CDK12–cyclin K and DDB1; [2]): 0.2131 and 0.2461 | TR-FRET signal (CDK12–cyclin K and DDB1; [3]): 0.2289 and 0.2537 | TR-FRET signal (CDK12–cyclin K and DDB1; [4]): 0.2472 and 0.27 | TR-FRET signal (CDK12–cyclin K and DDB1; [5]): 0.294 and 0.3255 | TR-FRET signal (CDK12–cyclin K and DDB1; [6]): 0.3562 and 0.4045 | TR-FRET signal (CDK12–cyclin K and DDB1; compound concentration 2448 nM): 0.4507 and 0.5009 | TR-FRET signal (CDK12–cyclin K and DDB1; [7]): 0.6036 and 0.6674 | TR-FRET signal (CDK12–cyclin K and DDB1; [8]): 0.6334 and 0.6963 | EC50 (CDK12–cyclin K and DDB1; [9]): 2200 ± 326 nM
Structure (SMILES): Cn1cc(-n2cnc3c(NCc4ccc(OCCO)cc4)nc(N4CCOCC4)nc32)cn1 [DS62]
DDB1–CDK12 complex formation, result in words (CDK12–cyclin K and DDB1; in vitro TR-FRET): incompatible with the DDB1–CDK12 interface | EC50 (HEK293T cells): > 10000 nM | Toxicity rescue (HEK293T cells): 0%
